# From patent US20250122207A1, “AP2 ASSOCIATED KINASE 1 INHIBITORS AND USES THEREOF” (Satellos Bioscience Inc., priority 2023, published 2025)
# Assays:
# [1] = target: T1, AAK1 (amino acids T27-A365) (Homo sapiens, UniProt Q2M2I8); assay: AAK1 pSENs assay; assay type: biochemical; settings: class symbols; read-out: AAK1 pSENs: EIC50
# T1 construct: against AAK1 (amino acids T27-A365); 6His (N, cleaved yes)
# Procedure, shortened: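 Biotinylated, tag-free AAK1 T27-A365 expressed in E. coli was held at 20 nM in enzyme solution (HEPES pH 7.5, 10 mM MgCl2, DTT, EGTA, Brij35, BSA) and preincubated with compound for 15 min at 25 °C. The reaction was started with an equal volume of substrate solution containing 30 uM AQT0759 peptide and 70 uM ATP. IC50 determined.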
# AAK1 = AAK1 (Homo sapiens, UniProt Q2M2I8); assay: pAP2M1 cell-based assay (in-cell Western); settings: Hela cells co-transfected with AP2M1 and AAK1, 3 hr treatment; class symbols; read-out: AAK1 In-cell Western: IC50
# AAK1, sequence (Q2M2I8 whole entry): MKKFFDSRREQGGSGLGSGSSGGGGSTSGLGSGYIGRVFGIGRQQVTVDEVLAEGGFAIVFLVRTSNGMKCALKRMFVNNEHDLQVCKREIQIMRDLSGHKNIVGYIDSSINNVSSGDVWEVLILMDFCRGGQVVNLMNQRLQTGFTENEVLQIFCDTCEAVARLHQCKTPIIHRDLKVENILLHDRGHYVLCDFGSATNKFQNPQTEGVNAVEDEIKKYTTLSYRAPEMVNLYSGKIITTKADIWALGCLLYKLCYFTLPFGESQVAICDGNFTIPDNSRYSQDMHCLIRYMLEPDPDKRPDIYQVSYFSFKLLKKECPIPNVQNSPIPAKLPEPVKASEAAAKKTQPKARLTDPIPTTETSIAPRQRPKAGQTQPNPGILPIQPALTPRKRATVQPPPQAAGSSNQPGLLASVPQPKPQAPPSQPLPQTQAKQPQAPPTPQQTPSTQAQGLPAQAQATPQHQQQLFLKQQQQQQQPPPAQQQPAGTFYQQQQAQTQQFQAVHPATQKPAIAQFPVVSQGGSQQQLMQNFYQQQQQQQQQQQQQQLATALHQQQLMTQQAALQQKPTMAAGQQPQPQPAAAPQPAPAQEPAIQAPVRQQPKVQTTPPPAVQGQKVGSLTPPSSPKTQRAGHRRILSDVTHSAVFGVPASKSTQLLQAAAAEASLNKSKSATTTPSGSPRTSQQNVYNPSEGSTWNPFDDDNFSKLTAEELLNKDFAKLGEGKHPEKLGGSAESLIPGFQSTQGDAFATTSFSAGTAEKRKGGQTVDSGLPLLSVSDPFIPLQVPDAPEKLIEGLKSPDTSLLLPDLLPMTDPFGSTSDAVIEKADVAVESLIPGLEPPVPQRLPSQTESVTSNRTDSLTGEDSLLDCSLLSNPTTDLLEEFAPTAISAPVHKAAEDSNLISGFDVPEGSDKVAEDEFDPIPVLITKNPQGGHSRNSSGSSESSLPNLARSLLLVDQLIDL
# Source text: pAP2M1 Cell-Based Assay (in-Cell Western):
# The plate was read on Licor Odyssey CLx imaging system (LICOR) to acquire fluorescence intensity at 700 channel and 800 channel.
# Data analysis: Fluorescence intensity at 700 channel served as internal standard and 800 channel were normalized with 700 channel.
# [2] = target: T2, GAK (amino acids Q25-N335) (Homo sapiens, UniProt O14976); assay: GAK pSENs assay; assay type: biochemical; settings: class symbols; read-out: GAK pSENs:IC50
# T2 construct: against GAK (amino acids Q25-N335); 6His (N, cleaved yes)
# T2 sequence (O14976 25-335): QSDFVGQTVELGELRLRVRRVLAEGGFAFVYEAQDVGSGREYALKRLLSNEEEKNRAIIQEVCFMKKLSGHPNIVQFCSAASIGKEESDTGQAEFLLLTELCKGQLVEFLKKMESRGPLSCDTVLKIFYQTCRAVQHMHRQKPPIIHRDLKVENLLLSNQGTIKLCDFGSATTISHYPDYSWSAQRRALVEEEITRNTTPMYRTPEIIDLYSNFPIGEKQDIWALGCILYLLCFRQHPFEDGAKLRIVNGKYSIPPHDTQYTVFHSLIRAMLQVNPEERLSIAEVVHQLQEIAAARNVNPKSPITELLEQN
# Experimental: The recombinant proteins were independently expressed in Escherichia coli BL21(DE3) cells cultured in Luria-Bertani (LB) medium until OD600 reached 0.6-0.8, then cooled to 15° C. and supplemented with 0.5 mM isopropyl 1-thio-D-galactopyranoside (IPTG) induce protein expression 16 h. Cells were harvested and resuspended in lysis buffer (50 mM HEPES pH 7.5, 500 mM NaCl, 5 mM imidazole, 5% glycerol, 0.5 mM Tris (2-carboxyethyl) phosphine (TCEP), cOmplete Protease Inhibitor Tablet (Roche)) and lysed by microfludics high pressure homogenizer (UH-06, Union-Biotech). Proteins were purified using […] chromatography (His FF column, Bestchrom) and eluted stepwise in binding buffer with 20-300 mM imidazole. Removal of the hexahistidine tag was performed at 4° C. overnight using recombinant TEV protease and reacted with BirA to obtain the corresponding biotinylated-AAK1, BIKE or GAK proteins. Further separated in the reverse Strep column (Strep-Tactin® XT, IBA). The Biotin elution sample was collected containing untagged biotinylated protein was then purified by Ion-exchange chromatography (Mono Q 10/100 GL, Cytiva) and Size-exclusion chromatography (HiLoad 16/600 Superdex 200 pg, Cytiva). The pure protein was stored in a storage buffer 50 mM HEPES (pH 7.5), 300 mM NaCl, 5% glycerol at −80° C. Protein were characterized by SDS-PAGE, LC-MS and aSEC.
# This example describes one illustrative method for determining the IC50 of the compounds of the present invention against GAK (amino acids Q25-N335).
# [3] = target: T3, BIKE (amino acids S38-E345) (K320A, K321A) (Homo sapiens, UniProt Q9NSY1, K320A/K321A); assay: BIKE pSENs assay; assay type: biochemical; settings: class symbols; read-out: BIKE pSENs: IC50
# T3 construct: against BIKE (amino acids S38-E345) (K320A, K321A); 6His (N, cleaved yes)
# T3 sequence (Q9NSY1 38-345 K320A/K321A): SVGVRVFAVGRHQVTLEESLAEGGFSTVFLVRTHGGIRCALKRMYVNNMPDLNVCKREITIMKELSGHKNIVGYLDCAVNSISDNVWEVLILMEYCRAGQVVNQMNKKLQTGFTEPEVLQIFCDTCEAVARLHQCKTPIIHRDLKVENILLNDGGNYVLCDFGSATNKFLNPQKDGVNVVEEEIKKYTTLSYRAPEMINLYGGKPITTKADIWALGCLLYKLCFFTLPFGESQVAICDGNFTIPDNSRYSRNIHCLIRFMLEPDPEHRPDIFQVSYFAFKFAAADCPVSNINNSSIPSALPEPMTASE
# Procedure, shortened: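 E. coli-expressed, biotinylated, tag-free BIKE at 20 nM in HEPES pH 7.5 buffer with 10 mM MgCl2 preincubated with compound 15 min at 25° C. Reaction started with 30 uM AQT0759 sensor peptide and 40 uM ATP (concentrations before 1:1 mixing).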
# T1 sequence (Q2M2I8 27-365): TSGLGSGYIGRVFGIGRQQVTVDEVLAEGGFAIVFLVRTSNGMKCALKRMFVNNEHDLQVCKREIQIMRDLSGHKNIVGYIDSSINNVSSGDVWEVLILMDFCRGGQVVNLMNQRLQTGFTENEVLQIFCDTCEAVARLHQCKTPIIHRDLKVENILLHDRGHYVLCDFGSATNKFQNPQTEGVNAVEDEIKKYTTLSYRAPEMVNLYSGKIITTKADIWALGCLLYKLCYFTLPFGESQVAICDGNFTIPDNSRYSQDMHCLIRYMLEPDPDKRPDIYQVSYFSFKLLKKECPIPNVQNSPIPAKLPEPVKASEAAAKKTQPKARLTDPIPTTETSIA
SMILES,IC50 [1] [µM],IC50 (AAK1) [µM],IC50 [2] [µM],IC50 [3] [µM]
"CN1C[C@@H](OC(=O)N2CCN(c3ccn4ncc(-c5cccnc5O)c4n3)CC2)CC1=O [Compound I-98, [(3S)-1-methyl-5-oxo-pyrrolidin-3-yl]-4-[3-(2-hydroxy-3-pyridyl)pyrazolo[1,5-a]pyrimidin-5-yl]piperazine-1-carboxylate]",0.151 to 0.5,> 1.5,> 1.5,0.501 to 1.5
"CN(CCNc1ccn2ncc(-c3cccnc3OC3CC3)c2n1)C(=O)OC(C)(C)C [Compound I-12, tert-butyl N-[2-[[3-[2-(Cyclopropoxy)-3-pyridyl]pyrazolo[1,5-a]pyrimidin-5-yl]amino]ethyl]-N-methyl-carbamate]",0.001 to 0.05,0.151 to 0.5,0.501 to 1.5,0.051 to 0.15
"COc1ncccc1-c1cnn2ccc(N3CCN(C(=O)OC4CCNC4)CC3)nc12 (stereo not shown) [Compound I-5, Pyrrolidin-3-yl4-[3-(2-methoxy-3-pyridyl)pyrazolo[1,5-a]pyrimidin-5-yl]piperazine-1-carboxylate]",0.001 to 0.05,0.151 to 0.5,0.501 to 1.5,0.001 to 0.05
"C[C@@]1(OC(=O)N2CCN(c3ccn4ncc(-c5cccnc5OC5CC5)c4n3)CC2)CCNC1 [Compound I-14, [(3R)-3-Methylpyrrolidin-3-yl]-4-[3-[2-(cyclopropoxy)-3-pyridyl]pyrazolo[1,5-a]pyrimidin-5-yl]piperazine-1-carboxylate]",0.001 to 0.05,0.151 to 0.5,0.501 to 1.5,0.151 to 0.5
"CC(C)(C)OC(=O)N1CCC(N2C[C@H](OC(=O)N3CCN(c4ccn5ncc(-c6cccnc6OC6CC6)c5n4)CC3)CC2=O)CC1 [Compound I-31, (R)-1-(1-(tert-Butoxycarbonyl)piperidin-4-yl)-5-oxopyrrolidin-3-yl 4-(3-(2-cyclopropoxypyridin-3-yl)pyrazolo[1,5-a]pyrimidin-5-yl)piperazine-1-carboxylate]",0.151 to 0.5,> 1.5,0.501 to 1.5,0.151 to 0.5
"CC(C)(C)OC(=O)NCCNc1ccc2ncc(-c3cccnc3OC3CC3)n2n1 [Compound I-129, tert-butyl N-[2-[[3-[2-(cyclopropoxy)-3-pyridyl]imidazo[1,2-b]pyridazin-6-yl]amino]ethyl]carbamate]",0.001 to 0.05,0.501 to 1.5,0.151 to 0.5,0.051 to 0.15
"C[C@@]1(OC(=O)N2CCN(c3ccn4ncc(-c5cccnc5OC5CC5)c4n3)CC2)CCN(CC(N)=O)C1 [Compound I-51, (R)-1-(2-amino-2-oxoethyl)-3-(methylpyrrolidin-3-yl)-4-(3-(2-cyclopropoxypyridin-3-yl)pyrazolo[1,5-a]pyrimidin-5-yl)piperazine-1-carboxylate]",0.001 to 0.05,0.151 to 0.5,0.501 to 1.5,0.501 to 1.5
"CC(C)Oc1ncccc1-c1cnn2ccc(N3CCN(C(=O)O[C@]4(C)CCNC4)CC3)nc12 [Compound I-22, [(3R)-3-methylpyrrolidin-3-yl]4-[3-(2-isopropoxy-3-pyridyl)pyrazolo[1,5-a]pyrimidin-5-yl]piperazine-1-carboxylate]",0.001 to 0.05,0.051 to 0.15,0.051 to 0.15,0.051 to 0.15
"CC1(OC(=O)N2CCN(c3ccn4ncc(-c5ccc(C(N)=O)cc5)c4n3)CC2)COC1 [Compound I-3, (3-methyloxetan-3-yl)-4-[3-(4-carbamoylphenyl)pyrazolo[1,5-a]pyrimidin-5-yl]piperazine-1-carboxylate]",0.001 to 0.05,0.501 to 1.5,0.501 to 1.5,0.051 to 0.15
"CN(CCNc1ccn2ncc(-c3cccnc3OC3CC3)c2n1)C(=O)O[C@H]1CO[C@H]2OCC[C@H]21 [Compound I-71, (3R,3aS,6aR)-hexahydrofuro[2,3-b]furan-3-yl (2-((3-(2-cyclopropoxypyridin-3-yl)pyrazolo[1,5-a]pyrimidin-5-yl)amino)ethyl)(methyl)carbamate]",0.001 to 0.05,0.501 to 1.5,0.501 to 1.5,0.501 to 1.5
"CN1C[C@@H](OC(=O)N2CCN(c3ccn4ncc(Cl)c4n3)CC2)CC1=O [Compound I-96, [(3S)-1-methyl-5-oxo-pyrrolidin-3-yl]-4-(3-chloropyrazolo[1,5-a]pyrimidin-5-yl)piperazine-1-carboxylate]",> 1.5,> 1.5,> 1.5,> 1.5
"O=C1C[C@H](OC(=O)N2CCN(c3ccn4ncc(-c5cccnc5OC5CC5)c4n3)CC2)CN1CCOCc1ccccc1 [Compound I-37, [(3S)-1-(2-benzyloxyethyl)-5-oxo-pyrrolidin-3-yl]-4-[3-[2-(cyclopropoxy)-3-pyridyl]pyrazolo[1,5-a]pyrimidin-5-yl]piperazine-1-carboxylate]",0.001 to 0.05,0.501 to 1.5,0.501 to 1.5,0.501 to 1.5
"O=C1C[C@H](OC(=O)N2CCN(c3ccn4ncc(-c5cccnc5NC5CC5)c4n3)CC2)CN1 [Compound I-45, [(3S)-5-Oxopyrrolidin-3-yl]4-[3-[2-(cyclopropylamino)-3-pyridyl]pyrazolo[1,5-a]pyrimidin-5-yl]piperazine-1-carboxylate]",> 1.5,> 1.5,> 1.5,> 1.5
"C#CC1(OC(=O)N2CCN(c3ccn4ncc(-c5cccnc5OC5CC5)c4n3)CC2)CCNC1 (stereo not shown) [Compound I-16-7, 3-ethynylpyrrolidin-3-yl-4-(3-(2-cyclopropoxypyridin-3-yl)pyrazolo[1,5-a]pyrimidin-5-yl)piperazine-1-carboxylate]",0.001 to 0.05,0.001 to 0.05,0.051 to 0.15,0.051 to 0.15
"CN(CCNc1ccn2ncc(-c3cccnc3OC3CC3)c2n1)C(=O)O[C@]1(C)CCNC1 [Compound I-61, (R)-3-methylpyrrolidin-3-yl (2-((3-(2-cyclopropoxypyridin-3-yl)pyrazolo[1,5-a]pyrimidin-5-yl)amino)ethyl)(methyl)carbamate]",0.001 to 0.05,0.501 to 1.5,0.151 to 0.5,0.051 to 0.15
"C#C[C@@]1(OC(=O)N2CCN(c3ccn4ncc(-c5cccnc5OC5CC5)c4n3)CC2)CCNC1 [Compound I-16, [(3S)-3-Ethynylpyrrolidin-3-yl]-4-[3-[2-(cyclopropoxy)-3-pyridyl]pyrazolo[1,5-a]pyrimidin-5-yl]piperazine-1-carboxylate]",0.001 to 0.05,0.001 to 0.05,0.051 to 0.15,0.001 to 0.05
"COc1ncccc1-c1cnn2ccc(N3CCN(C(=O)OC4(C)CCNC4)CC3)nc12 (stereo not shown) [Compound I-8, (3-Methylpyrrolidin-3-yl)-4-[3-(2-methoxy-3-pyridyl)pyrazolo[1,5-a]pyrimidin-5-yl]piperazine-1-carboxylate]",0.001 to 0.05,0.001 to 0.05,0.151 to 0.5,0.001 to 0.05
CN1C[C@@H](OC(=O)N2CCN(c3ccn4ncc(-c5cc(OC(F)(F)F)cnc5OC5CC5)c4n3)CC2)CC1=O [Compound I-88],0.001 to 0.05,> 1.5,0.501 to 1.5,0.151 to 0.5
COc1cnc(OC2CC2)c(-c2cnn3ccc(N4CCN(C(=O)O[C@H]5CC(=O)N(C)C5)CC4)nc23)c1 [Compound I-87],0.001 to 0.05,0.151 to 0.5,0.501 to 1.5,0.051 to 0.15
